Experimental data reported in US20080064027A1, “TEL/Etv6-mediated inhibition of cell proliferation” (priority 2002, published 2008).

Target: T1, Stat3-ER (UniProt P19785+P40763, G525R)
T1 construct: expressed in transfected cells
Experiment: Stat3 oligonucleotide DNA binding assay on nuclear extracts
Format: cell-based
Method: DNA binding assays were carried out using cells stimulated with 4HT (1 microM) for 0, 0.3, 1, 2, 4 and 24 hours. […] Samples were centrifuged and the pellet was washed two more times with binding buffer. Proteins were eluted from beads by boiling in 25 microliters of 2× loading buffer (1% DTT, 4% SDS, 20% Glycerol, 0.02% Bromophenol Blue, 0.25 M TrisHCl 1M 6.8 pH) and SDS-PAGE was performed.
DNA binding of Stat3-ER and endogenous Stat3 was monitored by performing Western analysis on the oligonucleotide-bound proteins.

T1 sequence (P40763+P19785 fused P19785:G525R): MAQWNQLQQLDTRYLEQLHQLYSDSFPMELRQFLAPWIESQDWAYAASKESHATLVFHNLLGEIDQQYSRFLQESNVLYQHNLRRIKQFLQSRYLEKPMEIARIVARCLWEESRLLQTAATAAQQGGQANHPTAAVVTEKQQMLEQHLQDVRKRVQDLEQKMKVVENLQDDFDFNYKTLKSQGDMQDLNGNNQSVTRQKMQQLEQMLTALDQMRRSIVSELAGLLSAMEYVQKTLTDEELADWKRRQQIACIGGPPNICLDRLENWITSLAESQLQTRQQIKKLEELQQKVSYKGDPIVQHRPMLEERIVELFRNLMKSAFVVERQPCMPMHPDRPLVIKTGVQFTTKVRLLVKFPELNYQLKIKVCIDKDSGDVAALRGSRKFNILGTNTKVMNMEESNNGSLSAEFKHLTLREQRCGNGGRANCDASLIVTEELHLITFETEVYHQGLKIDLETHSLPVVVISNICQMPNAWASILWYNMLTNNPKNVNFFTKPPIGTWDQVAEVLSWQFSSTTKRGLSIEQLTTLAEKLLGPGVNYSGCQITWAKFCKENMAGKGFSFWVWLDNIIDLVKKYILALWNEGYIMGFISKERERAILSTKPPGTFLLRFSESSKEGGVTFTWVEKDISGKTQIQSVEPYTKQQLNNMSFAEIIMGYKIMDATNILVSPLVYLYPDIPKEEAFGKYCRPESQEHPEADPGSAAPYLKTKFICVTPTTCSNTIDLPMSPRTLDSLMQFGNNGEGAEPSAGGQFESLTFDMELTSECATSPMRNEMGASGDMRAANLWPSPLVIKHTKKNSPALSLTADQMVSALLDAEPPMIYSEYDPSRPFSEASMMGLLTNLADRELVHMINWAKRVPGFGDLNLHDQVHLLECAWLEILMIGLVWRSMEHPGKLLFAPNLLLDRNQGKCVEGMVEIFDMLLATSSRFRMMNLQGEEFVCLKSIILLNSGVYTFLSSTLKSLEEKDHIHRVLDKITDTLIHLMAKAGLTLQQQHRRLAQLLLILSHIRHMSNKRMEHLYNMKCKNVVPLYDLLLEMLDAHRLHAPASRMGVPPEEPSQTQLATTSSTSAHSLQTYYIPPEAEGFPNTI

Compound	earliest time at which Stat3ER-DNA binding was detected after stimulation (4HT 1 microM) [min]	time of maximum measured Stat3ER-DNA binding (4HT 1 microM) [h]	Stat3-ER nuclear translocation and DNA binding to Stat3-specific oligonucleotide probe (4HT 1 microM, Stat3-ER-expressing A375 cells)	endogenous Stat3 DNA binding after OSM addition (cells pretreated with 4HT for 24 hrs)	Stat3-ER DNA binding in the presence of OSM (cells pretreated with 4HT for 24 hrs, remained bound for the entire course)
CCC(=C(c1ccc(O)cc1)c1ccc(OCCN(C)C)cc1)c1ccccc1 [4HT, 4-hydroxytamoxifen, reference compound]	20	24	induced nuclear translocation and DNA-binding		
oncostatin M [OSM]				could be detected 15 min after addition of OSM and decreased after 1 hr of treatment	enhanced
